{"source": "patent US11357752B2", "about": "“Carolacton and derivatives thereof for use in the treatment of cell proliferation disorders” (Helmholtz-Zentrum für Infektionsforschung GmbH, priority 2017, dated 2022)", "experiment_in_all_cases": "CellTiter-Glo luminescent cell viability assay", "type_in_all_cases": "cell-based, human", "key": {"[1]": {"tested_on": "HUVEC cells", "conditions": "for pIC50: Homo sapiens, HUVEC", "procedure": "(§1) To evaluate the effects of one compound on 7 cell lines with a CellTiter-Glo Luminescent Cell Viability Assay. Cells were treated with compounds for 72 hours at 37° C./5% CO2 incubator. Compound stock concentration was 20 mM, concentrations to be assayed 100\\50\\15\\10.5\\0.1\\0.05\\0.01\\0.005 pM. • i) Materials and Reagents\n(§2) a) Cells in log-phase are collected and counted. Cell suspensions are added to each well of 384-w plate at a suitable density. The margin wells are filled with PBS.\n(§3) b) Test compound at various concentrations are added in duplicates\n(§4) c) The cells were incubated for 72 h in 370/5% CO 2 incubator.\n(§5) d) After incubation, CellTiter-Glo® Reagent is added to each test well and shack for 2 minutes on an orbital shaker.\n(§6) e) The plates are shortly centrifuged at 90×g for 30 s and incubated at room temperature for additional 10 minutes to stabilize the luminescent signal.\n(§7) f) Luminescence signals are detected on PHERAstar Plus.\n(§8) g) Data is collected in Microsoft excel forms and analyzed with GraphPad Prism v.6 software. • iii) Data analysis\n(§9) The potential effect of the testing compounds an cell proliferation was calculated by the formula below: Inhibition %=[…]\n(§10) Since hsMTHFD2 is expressed in human mitochondria and overexpressed in many tumor cells we next aimed to evaluate its potential as an anticancer compound. To this end IC50 values for carolacton were determined for six different cancer cell lines as well as HUVEC cells as primary non-tumor cells. The CellTiter-Glo luminescent cell viability assay (Promega) was used on triplicate cultures grown for three days. Each cell line was tested in three independent experiments (performed at different times and by different experimentators): First, using natural carolacton purified from culture supernatants of Sorangium cellulosum and solved in methanol; second, using carolacton synthesized de novo according to Schmidt et al. 2012 and solved in DMSO; and third, using synthetic carolacton synthesized de novo according to Schmidt et al. 2012 and solved in methanol."}, "[2]": {"tested_on": "THP-1 cells", "conditions": "for pIC50: Homo sapiens, THP-1, 72 h, 72 h", "procedure": "as §1, §2, §3, §4, §5, §6, §7, §8, §9, §10"}, "[3]": {"tested_on": "NK-92 cells", "conditions": "for pIC50: Homo sapiens", "procedure": "as §1, §2, §3, §4, §5, §6, §7, §8, §9, §10"}, "[4]": {"tested_on": "HCT 116 cells", "conditions": "for pIC50: Homo sapiens, HCT-116, 72 h, 72 h, read-out: IC50 inhibition of cancer cell proliferation", "procedure": "as §1, §2, §3, §4, §5, §6, §7, §8, §9, §10"}, "[5]": {"tested_on": "U-937 cells", "conditions": "for pIC50: Homo sapiens", "procedure": "as §1, §2, §3, §4, §5, §6, §7, §8, §9, §10"}, "[6]": {"tested_on": "SW626 cells", "conditions": "for pIC50: Homo sapiens, SW626, 72 h, 72 h, read-out: IC50 inhibition of cancer cell proliferation", "procedure": "as §1, §2, §3, §4, §5, §6, §7, §8, §9, §10"}, "[7]": {"tested_on": "NCI-N87 cells", "conditions": "for pIC50: Homo sapiens, NCI-N87, 72 h, 72 h, read-out: IC50 inhibition of cancer cell proliferation", "procedure": "as §1, §2, §3, §4, §5, §6, §7, §8, §9, §10"}, "[8]": {"conditions": "HUVEC (primary), natural C, methanol"}, "[9]": {"conditions": "HUVEC (primary), synthetic C, DMSO"}, "[10]": {"conditions": "HUVEC (primary), synthetic C, methanol"}}, "note": "pIC50: −log10 of the molar value. Where two headings read alike, the source gives them in different places."}
{"smiles": "CO[C@H](CC(=O)O)[C@@H](C)C(=O)[C@H](C)/C=C(\\C)[C@H]1OC(=O)[C@H](O)[C@H](O)/C=C/[C@H](C)CCC[C@@H]1C", "note": "[Carolacton, carolacton]", "values": [{"measurement": "Bottom", "setting": "[1]; [8]", "value": "−4.548"}, {"measurement": "Top", "setting": "[1]; [8]", "value": "=100.0"}, {"measurement": "Bottom", "setting": "[1]; [9]", "value": "−7.188"}, {"measurement": "Top", "setting": "[1]; [9]", "value": "=100.0"}, {"measurement": "Bottom", "setting": "[1]; [10]", "value": "−3.312"}, {"measurement": "Top", "setting": "[1]; [10]", "value": "=100.0"}, {"measurement": "pIC50", "setting": "[1]; 72 h, HUVEC (primary), natural C, methanol, 72 h, read-out: IC50 inhibition of cell proliferation", "value": 4.32}, {"measurement": "pIC50", "setting": "[1]; 72 h, HUVEC (primary), synthetic C, DMSO, 72 h, read-out: IC50 inhibition of cell proliferation", "value": 3.99}, {"measurement": "pIC50", "setting": "[1]; HUVEC cells, read-out: IC50", "value": 4.33}, {"measurement": "pIC50", "setting": "[2]; THP 1, synthetic C, methanol, read-out: IC50 inhibition of cancer cell proliferation", "value": 4.30}, {"measurement": "pIC50", "setting": "[2]; THP-1, natural C, methanol, read-out: IC50 inhibition of cancer cell proliferation", "value": 5.05}, {"measurement": "pIC50", "setting": "[2]; read-out: IC50 inhibition of cancer cell proliferation, THP-1, synthetic C, DMSO", "value": 3.99}, {"measurement": "Bottom", "setting": "[2]; THP 1, synthetic C, methanol", "value": 14.83}, {"measurement": "Top", "setting": "[2]; THP 1, synthetic C, methanol", "value": 67.53}, {"measurement": "Bottom", "setting": "[2]; THP-1, natural C, methanol", "value": 2.537}, {"measurement": "Top", "setting": "[2]; THP-1, natural C, methanol", "value": 75.92}, {"measurement": "Bottom", "setting": "[2]; THP-1, synthetic C, DMSO", "value": "−4.341"}, {"measurement": "Top", "setting": "[2]; THP-1, synthetic C, DMSO", "value": "=100.0"}, {"measurement": "pIC50", "setting": "[3]; NK92, 72 h, NK-92, natural C, methanol, 72 h, read-out: IC50 inhibition of cancer cell proliferation", "value": 7.40}, {"measurement": "pIC50", "setting": "[3]; NK92, 72 h, NK-92, synthetic C, DMSO, 72 h, read-out: IC50 inhibition of cancer cell proliferation", "value": "< 4.00"}, {"measurement": "pIC50", "setting": "[3]; NK92, 72 h, read-out: IC50 inhibition of cancer cell proliferation, NK-92, synthetic C, methanal, 72 h", "value": 7.44}, {"measurement": "pIC50", "setting": "[3]; NK92, malignant NK-92 cells, read-out: IC50 inhibition of proliferation", "value": "7.41 to 7.43"}, {"measurement": "Bottom", "setting": "[3]; NK-92, natural C, methanol", "value": "−9.96"}, {"measurement": "Top", "setting": "[3]; NK-92, natural C, methanol", "value": 91.08}, {"measurement": "Bottom", "setting": "[3]; NK-92, synthetic C, methanal", "value": 1.208}, {"measurement": "Top", "setting": "[3]; NK-92, synthetic C, methanal", "value": 91.05}, {"measurement": "pIC50", "setting": "[4]; natural C, methanol", "value": 6.28}, {"measurement": "pIC50", "setting": "[4]; synthetic C, DMSO", "value": 6.54}, {"measurement": "pIC50", "setting": "[4]; synthetic C, methanol", "value": 6.28}, {"measurement": "Bottom", "setting": "[4]; natural C, methanol", "value": "−1.927"}, {"measurement": "Top", "setting": "[4]; natural C, methanol", "value": 43.89}, {"measurement": "Bottom", "setting": "[4]; synthetic C, DMSO", "value": "−1.609"}, {"measurement": "Top", "setting": "[4]; synthetic C, DMSO", "value": 63.98}, {"measurement": "Bottom", "setting": "[4]; synthetic C, methanol", "value": "−2.614"}, {"measurement": "Top", "setting": "[4]; synthetic C, methanol", "value": 63.68}, {"measurement": "pIC50", "setting": "[5]; U-937, 72 h, U-937, natural C, methanol, 72 h, read-out: IC50 inhibition of cancer cell proliferation", "value": 7.97}, {"measurement": "pIC50", "setting": "[5]; U-937, 72 h, U-937, synthetic C, DMSO, 72 h, read-out: IC50 inhibition of cancer cell proliferation", "value": 7.35}, {"measurement": "pIC50", "setting": "[5]; U-937, 72 h, U-937, synthetic C, methanol, 72 h, read-out: IC50 inhibition of cancer cell proliferation", "value": 8.16}, {"measurement": "pIC50", "setting": "[5]; U-937, Lymphoma cells (U-937), read-out: IC50 inhibition of proliferation", "value": "7.35 to 8.17"}, {"measurement": "Bottom", "setting": "[5]; U-937, natural C, methanol", "value": "=0.0"}, {"measurement": "Top", "setting": "[5]; U-937, natural C, methanol", "value": 67.6}, {"measurement": "Bottom", "setting": "[5]; U-937, synthetic C, DMSO", "value": 1.808}, {"measurement": "Top", "setting": "[5]; U-937, synthetic C, DMSO", "value": 61.59}, {"measurement": "Bottom", "setting": "[5]; U-937, synthetic C, methanol", "value": 0}, {"measurement": "Top", "setting": "[5]; U-937, synthetic C, methanol", "value": 60.9}, {"measurement": "pIC50", "setting": "[6]; natural C, methanol", "value": 6.44}, {"measurement": "pIC50", "setting": "[6]; synthetic C, DMSO", "value": 6.04}, {"measurement": "pIC50", "setting": "[6]; synthetic C, methanol", "value": 6.00}, {"measurement": "Bottom", "setting": "[6]; natural C, methanol", "value": 1.167}, {"measurement": "Top", "setting": "[6]; natural C, methanol", "value": 42.81}, {"measurement": "Bottom", "setting": "[6]; synthetic C, DMSO", "value": 5.588}, {"measurement": "Top", "setting": "[6]; synthetic C, DMSO", "value": 43.17}, {"measurement": "Bottom", "setting": "[6]; synthetic C, methanol", "value": 3.62}, {"measurement": "Top", "setting": "[6]; synthetic C, methanol", "value": 47.2}, {"measurement": "pIC50", "setting": "[7]; natural C, methanol", "value": 6.65}, {"measurement": "pIC50", "setting": "[7]; synthetic C, DMSO", "value": "< 4.00"}, {"measurement": "pIC50", "setting": "[7]; synthetic C, methanol", "value": 6.45}, {"measurement": "Bottom", "setting": "[7]; natural C, methanol", "value": 11.93}, {"measurement": "Top", "setting": "[7]; natural C, methanol", "value": 41.34}, {"measurement": "Bottom", "setting": "[7]; synthetic C, methanol", "value": 6.683}, {"measurement": "Top", "setting": "[7]; synthetic C, methanol", "value": 23.87}]}
